Test [1] deals with T1, Alpha-2A adrenergic receptor (Homo sapiens, UniProt P08913).
T1 sequence (P08913 whole entry): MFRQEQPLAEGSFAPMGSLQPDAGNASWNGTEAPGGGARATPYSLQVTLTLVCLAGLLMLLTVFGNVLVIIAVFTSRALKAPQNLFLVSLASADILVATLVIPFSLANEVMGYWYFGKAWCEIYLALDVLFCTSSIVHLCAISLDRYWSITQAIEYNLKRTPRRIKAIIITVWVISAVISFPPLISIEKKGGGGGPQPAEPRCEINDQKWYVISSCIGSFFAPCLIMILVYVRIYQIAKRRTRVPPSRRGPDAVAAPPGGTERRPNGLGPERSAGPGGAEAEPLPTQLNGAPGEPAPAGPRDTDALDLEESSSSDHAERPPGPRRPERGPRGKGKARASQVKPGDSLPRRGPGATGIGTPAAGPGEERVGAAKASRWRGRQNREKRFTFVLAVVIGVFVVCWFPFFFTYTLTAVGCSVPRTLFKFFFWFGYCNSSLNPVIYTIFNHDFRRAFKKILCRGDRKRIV
The format is functional, cell-based.

For test [2], the target named is T2, Alpha-2C adrenergic receptor (Homo sapiens, UniProt P18825).
T2 sequence (P18825 whole entry): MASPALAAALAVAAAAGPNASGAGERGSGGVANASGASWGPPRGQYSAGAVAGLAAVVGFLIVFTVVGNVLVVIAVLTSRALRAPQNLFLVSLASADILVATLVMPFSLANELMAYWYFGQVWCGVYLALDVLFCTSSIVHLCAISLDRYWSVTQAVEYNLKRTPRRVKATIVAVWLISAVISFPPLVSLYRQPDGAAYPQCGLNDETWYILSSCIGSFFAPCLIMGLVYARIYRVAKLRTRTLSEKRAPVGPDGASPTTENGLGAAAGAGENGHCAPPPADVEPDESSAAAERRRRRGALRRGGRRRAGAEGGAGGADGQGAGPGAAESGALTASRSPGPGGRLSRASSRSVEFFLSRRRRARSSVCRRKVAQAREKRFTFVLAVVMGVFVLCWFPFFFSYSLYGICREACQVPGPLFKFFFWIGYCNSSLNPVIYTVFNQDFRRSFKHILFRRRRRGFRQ
The format is functional.

For the next test, the target named is T3, B2 bradykinin receptor (Homo sapiens, UniProt P30411).
T3 sequence (P30411 whole entry): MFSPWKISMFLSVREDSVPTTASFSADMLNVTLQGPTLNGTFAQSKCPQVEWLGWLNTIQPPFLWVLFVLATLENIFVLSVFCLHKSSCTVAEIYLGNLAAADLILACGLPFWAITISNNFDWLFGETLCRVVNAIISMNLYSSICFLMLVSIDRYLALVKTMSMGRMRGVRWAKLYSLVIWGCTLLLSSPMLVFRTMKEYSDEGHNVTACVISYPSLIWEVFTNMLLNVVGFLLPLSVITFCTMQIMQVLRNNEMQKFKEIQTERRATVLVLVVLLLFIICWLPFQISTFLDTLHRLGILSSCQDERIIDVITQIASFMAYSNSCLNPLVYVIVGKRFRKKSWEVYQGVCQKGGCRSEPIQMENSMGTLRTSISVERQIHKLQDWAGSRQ

For test [3], the target named is Neuronal acetylcholine receptor subunit alpha-4 (Homo sapiens, UniProt P43681).
The next test has as its target D(1A) dopamine receptor (Homo sapiens, UniProt P21728). It is filed as functional, cell-based.
Test [4] concerns the target Gamma-aminobutyric acid receptor subunit alpha-1 (Rattus norvegicus, UniProt P62813).
Test [5] addresses 5-hydroxytryptamine receptor 2B (Homo sapiens, UniProt P41595). The format is functional, cell-based.
For another test, the target named is Melanocortin receptor 3 (Homo sapiens, UniProt P41968).
The target of the next test is T4, Thromboxane A2 receptor (Homo sapiens, UniProt P21731).
T4 sequence (P21731 whole entry): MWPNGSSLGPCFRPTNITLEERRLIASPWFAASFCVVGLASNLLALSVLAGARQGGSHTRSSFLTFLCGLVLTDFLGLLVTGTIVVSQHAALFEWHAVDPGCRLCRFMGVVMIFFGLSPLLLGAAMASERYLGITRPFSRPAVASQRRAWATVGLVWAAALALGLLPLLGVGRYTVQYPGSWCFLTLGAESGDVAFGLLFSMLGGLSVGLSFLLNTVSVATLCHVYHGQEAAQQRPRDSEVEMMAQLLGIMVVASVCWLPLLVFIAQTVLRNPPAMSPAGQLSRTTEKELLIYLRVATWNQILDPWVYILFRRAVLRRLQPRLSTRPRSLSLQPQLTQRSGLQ

In test [6] the target is Sodium-dependent noradrenaline transporter (Homo sapiens, UniProt P23975).
Also: assay procedure not described here.

Sodium-dependent noradrenaline transporter, sequence (P23975 whole entry): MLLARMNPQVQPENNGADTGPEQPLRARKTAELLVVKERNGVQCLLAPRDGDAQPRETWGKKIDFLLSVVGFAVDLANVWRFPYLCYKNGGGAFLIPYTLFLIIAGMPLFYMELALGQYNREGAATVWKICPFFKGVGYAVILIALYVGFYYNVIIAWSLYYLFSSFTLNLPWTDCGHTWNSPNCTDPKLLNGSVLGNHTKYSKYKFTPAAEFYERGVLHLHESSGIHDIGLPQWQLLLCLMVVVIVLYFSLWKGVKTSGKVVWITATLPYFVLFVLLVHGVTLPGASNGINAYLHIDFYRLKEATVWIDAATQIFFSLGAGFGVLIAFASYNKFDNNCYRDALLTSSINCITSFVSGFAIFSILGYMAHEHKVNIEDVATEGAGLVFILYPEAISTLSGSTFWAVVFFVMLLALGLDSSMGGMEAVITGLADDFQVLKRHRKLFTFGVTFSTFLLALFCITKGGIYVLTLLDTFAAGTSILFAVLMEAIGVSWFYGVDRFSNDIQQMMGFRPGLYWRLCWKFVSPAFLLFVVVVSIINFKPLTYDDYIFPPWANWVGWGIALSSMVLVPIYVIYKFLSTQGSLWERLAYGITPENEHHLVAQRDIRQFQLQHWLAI
Gamma-aminobutyric acid receptor subunit alpha-1, sequence (P62813 whole entry): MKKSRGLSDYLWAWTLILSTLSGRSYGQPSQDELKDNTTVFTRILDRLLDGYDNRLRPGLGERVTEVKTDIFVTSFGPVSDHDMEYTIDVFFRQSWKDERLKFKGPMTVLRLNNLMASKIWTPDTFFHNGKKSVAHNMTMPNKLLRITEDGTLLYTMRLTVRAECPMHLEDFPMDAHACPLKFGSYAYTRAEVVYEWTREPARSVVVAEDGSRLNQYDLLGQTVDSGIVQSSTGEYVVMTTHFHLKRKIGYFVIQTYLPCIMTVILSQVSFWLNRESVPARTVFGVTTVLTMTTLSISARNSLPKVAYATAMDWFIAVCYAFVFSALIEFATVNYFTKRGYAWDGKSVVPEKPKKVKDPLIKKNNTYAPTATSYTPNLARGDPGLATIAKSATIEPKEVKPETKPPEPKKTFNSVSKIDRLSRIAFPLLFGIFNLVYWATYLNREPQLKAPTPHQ
Melanocortin receptor 3, sequence (P41968 whole entry): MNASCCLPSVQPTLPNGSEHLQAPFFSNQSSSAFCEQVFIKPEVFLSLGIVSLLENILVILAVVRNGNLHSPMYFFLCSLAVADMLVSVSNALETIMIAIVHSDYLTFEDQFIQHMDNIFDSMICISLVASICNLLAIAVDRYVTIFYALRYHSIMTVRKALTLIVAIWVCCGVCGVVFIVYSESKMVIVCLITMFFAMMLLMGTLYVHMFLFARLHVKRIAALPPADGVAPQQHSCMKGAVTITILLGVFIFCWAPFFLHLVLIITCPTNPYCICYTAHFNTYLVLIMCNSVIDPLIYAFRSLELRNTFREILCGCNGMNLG
D(1A) dopamine receptor, sequence (P21728 whole entry): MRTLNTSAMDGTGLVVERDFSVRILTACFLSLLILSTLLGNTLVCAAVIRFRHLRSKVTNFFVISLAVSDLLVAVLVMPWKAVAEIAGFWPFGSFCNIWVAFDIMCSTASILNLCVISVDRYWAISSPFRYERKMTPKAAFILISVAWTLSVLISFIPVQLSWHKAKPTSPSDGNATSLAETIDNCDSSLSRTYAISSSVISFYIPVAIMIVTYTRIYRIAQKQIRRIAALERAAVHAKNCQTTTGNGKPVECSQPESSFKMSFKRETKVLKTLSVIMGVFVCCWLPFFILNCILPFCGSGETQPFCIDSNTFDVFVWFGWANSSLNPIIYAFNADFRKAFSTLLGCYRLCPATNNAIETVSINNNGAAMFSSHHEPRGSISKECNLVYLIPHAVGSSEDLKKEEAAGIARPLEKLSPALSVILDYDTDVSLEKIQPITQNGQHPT
5-hydroxytryptamine receptor 2B, sequence (P41595 whole entry): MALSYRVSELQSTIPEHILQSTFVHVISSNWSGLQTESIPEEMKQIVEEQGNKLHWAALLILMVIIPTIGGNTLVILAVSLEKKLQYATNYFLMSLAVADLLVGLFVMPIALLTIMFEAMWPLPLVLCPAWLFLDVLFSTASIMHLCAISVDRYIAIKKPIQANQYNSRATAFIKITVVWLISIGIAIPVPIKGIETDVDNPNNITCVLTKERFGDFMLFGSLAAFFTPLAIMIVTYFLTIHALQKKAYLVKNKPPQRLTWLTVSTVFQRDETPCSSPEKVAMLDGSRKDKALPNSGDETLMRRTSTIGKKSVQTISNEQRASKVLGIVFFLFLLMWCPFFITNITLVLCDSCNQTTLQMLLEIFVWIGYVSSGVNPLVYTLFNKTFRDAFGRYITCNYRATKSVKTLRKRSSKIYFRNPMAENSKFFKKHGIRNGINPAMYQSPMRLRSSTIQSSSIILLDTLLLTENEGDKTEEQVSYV
Neuronal acetylcholine receptor subunit alpha-4, sequence (P43681 whole entry): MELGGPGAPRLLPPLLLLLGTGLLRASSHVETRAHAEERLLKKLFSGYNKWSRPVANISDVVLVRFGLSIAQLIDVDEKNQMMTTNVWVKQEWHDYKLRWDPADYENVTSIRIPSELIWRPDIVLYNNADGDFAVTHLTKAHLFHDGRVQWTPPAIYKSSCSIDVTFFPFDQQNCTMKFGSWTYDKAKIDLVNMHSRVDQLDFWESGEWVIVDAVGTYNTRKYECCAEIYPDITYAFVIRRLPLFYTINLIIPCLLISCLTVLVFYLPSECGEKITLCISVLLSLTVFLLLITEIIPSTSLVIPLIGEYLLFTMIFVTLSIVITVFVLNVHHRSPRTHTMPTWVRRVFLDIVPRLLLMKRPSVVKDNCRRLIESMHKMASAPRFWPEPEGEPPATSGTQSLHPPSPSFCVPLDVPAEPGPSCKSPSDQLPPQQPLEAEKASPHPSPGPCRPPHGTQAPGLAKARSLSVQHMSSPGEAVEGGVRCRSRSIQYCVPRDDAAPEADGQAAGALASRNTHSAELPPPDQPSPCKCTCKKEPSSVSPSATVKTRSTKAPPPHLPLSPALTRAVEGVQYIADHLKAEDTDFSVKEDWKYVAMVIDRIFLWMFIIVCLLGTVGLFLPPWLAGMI

`Oc1cc(O)c(Cl)cn1`: the AC50 (in test [1]; in test [2]; on B2 bradykinin receptor; in [3]; on D(1A) dopamine receptor; in test [4]) was more than 30 µM each time. Also, the AC50 (in test [5]; at Melanocortin receptor 3; at Thromboxane A2 receptor; in test [6]) was more than 30 µM in each case.
For `Cc1cc(=O)n(-c2ccccc2)n1C` [ANTIPYRINE], the AC50 in [1] was more than 10 µM; in test [2] it was more than 10 µM; at B2 bradykinin receptor, more than 30 µM; in test [3] it was more than 10 µM; on D(1A) dopamine receptor, more than 10 µM; in test [4] it was more than 10 µM. The AC50 in test [5] is more than 10 µM; at Melanocortin receptor 3 it was more than 30 µM; on Thromboxane A2 receptor, more than 30 µM; in [6], more than 30 µM.
For `COc1cc(N)c(Cl)cc1C(=O)NC1CCN(CCCOc2ccc(F)cc2)CC1OC` (stereo not drawn) [CISAPRIDE], the AC50 was more than 30 µM on B2 bradykinin receptor; more than 10 µM in [3]; more than 10 µM on D(1A) dopamine receptor; more than 10 µM in test [4]; more than 30 µM on Melanocortin receptor 3; 22.9 µM at Thromboxane A2 receptor. In addition, the AC50 in [6] was more than 30 µM.
Consider `CCOC(=O)C(C)(C)Oc1ccc(Cl)cc1` [CLOFIBRATE], for which the AC50 in [1] is more than 10 µM; in [2], more than 10 µM; at B2 bradykinin receptor it was more than 30 µM; in [3], more than 10 µM; at D(1A) dopamine receptor, more than 10 µM; in [4], more than 10 µM. Moreover, the AC50 in test [5] was more than 10 µM; on Melanocortin receptor 3 it was more than 30 µM; on Thromboxane A2 receptor, more than 30 µM; in test [6], more than 30 µM.
Take `CCCCOc1ccc(C(=O)CCN2CCCCC2)cc1` [DYCLONINE]: the AC50 is more than 10 µM in [1]; 8.4 µM in test [2]; more than 30 µM on B2 bradykinin receptor; more than 10 µM in [3]; more than 10 µM at D(1A) dopamine receptor; more than 10 µM in test [4]. Also, the AC50 was more than 10 µM in [5], more than 30 µM on Melanocortin receptor 3, more than 30 µM on Thromboxane A2 receptor and 2.3 µM in [6].
As to `CC(C)NC[C@H](O)COc1ccc(CC(N)=O)cc1` [ESATENOLOL], the AC50 in [1] was more than 10 µM; in test [2], more than 10 µM; on B2 bradykinin receptor, more than 30 µM; on Melanocortin receptor 3 it was more than 30 µM; at Thromboxane A2 receptor it was more than 30 µM; in test [6] it was more than 10 µM.
For the compound `O=C1Nc2ccc(Cl)cc2C(c2ccccc2Cl)=NC1O` (stereo not drawn) [LORAZEPAM], the AC50 in test [1] is more than 10 µM; in test [2], more than 10 µM; at B2 bradykinin receptor, more than 30 µM; in test [3] it was more than 10 µM; on D(1A) dopamine receptor it was more than 30 µM; in test [4], more than 10 µM. For the same compound, the AC50 in test [5] is more than 10 µM; on Melanocortin receptor 3, more than 30 µM; on Thromboxane A2 receptor, more than 30 µM; in [6], more than 10 µM.
Take `Cc1ccnc2c1NC(=O)c1cccnc1N2C1CC1` [NEVIRAPINE]: the AC50 in test [1] is more than 10 µM; in test [2], more than 10 µM; at B2 bradykinin receptor, more than 30 µM; at D(1A) dopamine receptor, more than 10 µM; in test [4] it was more than 10 µM; in test [5] it was more than 10 µM. Moreover, the AC50 at Melanocortin receptor 3 was more than 30 µM; on Thromboxane A2 receptor, more than 30 µM; in [6], more than 10 µM.
`CO[C@H]1C[C@H](O[C@H]2CC[C@@]3(C)[C@H](CC[C@@H]4[C@@H]3CC[C@]3(C)[C@@H](C5=CC(=O)OC5)[C@@H](OC(C)=O)C[C@]43O)C2)O[C@@H](C)[C@@H]1O` [OLEANDRIN]: the AC50 (in test [1]; in test [2]; on D(1A) dopamine receptor; in test [4]; in test [5]) was more than 30 µM throughout.
As to `Fc1ccc([C@@H]2CCNC[C@H]2COc2ccc3c(c2)OCO3)cc1` [PAROXETINE], the AC50 in test [2] is 7.8 µM; on B2 bradykinin receptor it was more than 30 µM; in test [3], more than 10 µM; on D(1A) dopamine receptor it was more than 10 µM; in [4], more than 10 µM; in test [5], 19.1 µM. For the same compound, the AC50 at Melanocortin receptor 3 and at Thromboxane A2 receptor was more than 30 µM each time.
As to `CCC(=O)O[C@](Cc1ccccc1)(c1ccccc1)[C@H](C)CN(C)C` [PROPOXYPHENE], the AC50 in test [1] is more than 10 µM; in test [2], more than 10 µM; at B2 bradykinin receptor, more than 30 µM; in [3], more than 10 µM; at D(1A) dopamine receptor, more than 10 µM; in test [4] it was more than 10 µM. For the same compound, the AC50 in test [5] is more than 10 µM; at Melanocortin receptor 3, more than 30 µM; at Thromboxane A2 receptor, more than 30 µM; in test [6], more than 10 µM.
With `O=c1c(O)c(-c2ccc(O)c(O)c2)oc2cc(O)cc(O)c12` [QUERCETIN], the AC50 in [1] was more than 30 µM; in [2], more than 10 µM; at B2 bradykinin receptor, more than 30 µM; in test [3], more than 10 µM; at D(1A) dopamine receptor, more than 10 µM; in test [5], more than 30 µM. Also, the half-maximal activity concentration (AC50) at Melanocortin receptor 3 and on Thromboxane A2 receptor was more than 30 µM throughout.
As to `CCOC(=O)c1ccc(C#Cc2ccc3c(c2)C(C)(C)CCS3)nc1` [TAZAROTENE], the AC50 in [1] was more than 10 µM; in test [2], more than 10 µM; at B2 bradykinin receptor, more than 30 µM; in test [3] it was more than 10 µM; at D(1A) dopamine receptor, more than 30 µM; in test [4], more than 10 µM. Also, the AC50 is more than 10 µM in test [5], more than 30 µM at Melanocortin receptor 3, more than 30 µM on Thromboxane A2 receptor and more than 30 µM in test [6].

(Values after ChEMBL document CHEMBL5291721, “A preclinical secondary pharmacology resource illuminates target-adverse drug reaction associations of marketed drugs” (Nat Commun, 2023).)
